Experimental data reported in patent US7045324B2, “Tocopherol associated protein and uses thereof” (Research Development Foundation, priority 2002, dated 2006).

Experiments:
[1] = test system: MDA-MB-435 human breast cancer cells; assay: Apoptosis (DAPI staining) of TAP siRNA transfected MDA-MB-435 cells treated with tocopherol-based compounds; type: cell-based; details: TAP siRNA for 6 days, then compound for 2 days (α-TEA 20 μg/ml, VES 20 μg/ml, δT3 5 μg/ml)
Method: MDA-MD-435 cells at 13.5×10^6/55 cm^2 cell culture dish (100 mm×20 mm; catalog # 430293, Corning Inc., Corning, N.Y.) were transiently transfected with in vitro transcribed TAP siRNA (Silencer siRNA Construction Kit, Ambion) using siPORT Lipid following company instructions (catalog # 4505, Ambion, Austin, Tex.). Cells were incubated overnight in culture media, then washed two times with non-supplemented regular MEM media. Next, the cells were incubated overnight in the presence of siRNA/siPORT Lipid [[…]/16 μl or 16 μl siPORT lipid only (as control)] in 5 ml of serum free media (OPTI-MEMI, catalog # 31985–070, Gibco). SiRNA/siPORT Lipid complex was generated by two steps: 1) 16 μl of siPORT lipid was incubated with 60 μl of OPTI-MEMI media for 30 minutes at room temperature; and 2) 60 μl of siPORT Lipid in OPTI-MEMI was then incubated for 20 minutes with 500 μl of diluted TAP siRNA [or 500 μl media as control (5 μl of 10 μl TAP siRNA in 500 μl of OPTI-MEMI media)]. The transfected cells were then split into 12 wells at 1.5×10^5 cells/well for apoptosis and 55 cm^2 dish at 3.5×10^6 cells/dish for Western immunoblot analyses.
The cells in 55 cm^2 dishes were incubated for 8 hours with culture media followed by treatment with 20 μg/ml of α-TEA in 2% serum treatment media for 15 hours. Cells were collected and fractionated, and the lysates were analyzed for TAP protein levels by Western immunoblotting (FIG. 13A). The cells plated in 12-well plates were incubated overnight in culture media followed by treatment with 20 μg/ml of α-TEA, 20 μg/ml of VES, and 5 μg/ml of RRR-δ-tocotrienol (dt3) and cultured for 2 days. Apoptosis was evaluated by DAPI staining (FIG. 13B).
For example, cells transiently transfected with TAP siRNA for 6 days and then treated with α-TEA, VES, or δT3 were inhibited from induction of apoptosis by approximately 60% in comparison to control cells cultured with the three compounds for two days.

MDA-MB-435 cells [2] = assay: Apoptosis (nuclear condensation and fragmentation) of MDA-MB-435 cells transfected with antisense oligomers to TAP; type: cell-based, human; details: antisense to N-terminal region of TAP (TAP-38 and TAP-46)
Method: Apoptosis was determined by examination of nuclear condensation and fragmentation.
Transient transfection of MDA-MB-435 cells with antisense oligomers to the N-terminal region of TAP (interferes with TAP-38 as well as TAP-46 transcription) blocked the ability of tocopherol compounds, vitamin E succinate and compound #1, to induce apoptosis, showing that TAP-38 and TAP-46 are involved in the ability of vitamin E compounds to inhibit tumor cell growth (FIG. 10).

MDA-MB-435 cells [3] = assay: PARP cleavage and c-Jun phosphorylation in MDA-MB-435 cells transfected with antisense or sense oligomers to TAP; type: cell-based, human
Description: Antisense oligomers to TAP (both TAP-38 and TAP-46), showing that the induction of apoptosis with vitamin E succinate or compound #1 [2,5,7,8-tetramethyl-(2R-(4R,8R,12-trimethyltridecycl) chroman-6-yloxy) acetic acid] to involve tocopherol associated protein.

[4] = test system: tumor cells, normal cells, cells of epithelial or immune origin; details: cited from earlier work
[5] = test system: MDA-MB-435 human breast cancer cells; assay: Apoptosis of MDA-MB-435 cells transiently transfected with TAP-38 or TAP-46 cDNA and treated with compound; type: cell-based; details: 20 micrograms/ml compound
Description: Transient transfection of MDA-MB-435 human breast cancer cells with either TAP-38 or TAP-46 enhanced the ability of tocopherol compound #1 [2,5,7,8-tetramethyl-(2R-(4R,8R,12-trimethyltridecycl) chroman-6-yloxy) acetic acid] to induce apoptosis (FIG. 9).

In the case of `Cc1c(C)c2c(c(C)c1OC(=O)CCC(=O)O)CC[C@@](C)(CCC[C@H](C)CCC[C@H](C)CCCC(C)C)O2` [VES, RRR-α-tocopheryl succinate], the “inhibition of induction of apoptosis by TAP siRNA in comparison to control cells” value (“inhibition of induction of apoptosis” for short) [1] is reported as “approximately 60%”, the “ability to induce apoptosis in cells transfected with antisense oligomers to TAP, vs sense oligomers” value (MDA-MB-435 cells [2]) is reported as “blocked” and the “cleavage of poly ADP-ribose polymerase (PARP) in compound-treated cells with antisense vs sense oligomers to TAP” value (MDA-MB-435 cells [3]) is reported as “blocked the cleavage”. For the same compound, the “phosphorylation of c-Jun in compound-treated cells with antisense vs sense oligomers to TAP” value (MDA-MB-435 cells [3]) was “inhibited the phosphorylation”, the “apoptotic inducing effects on normal cells” value ([4]; normal cells) was “no apoptotic inducing effects on normal cells” and the “apoptosis of tumor cells” value ([4]; tumor cells) was “induces tumor cells to undergo apoptosis”.
For `Cc1c(C)c2c(c(C)c1OCC(=O)O)CC[C@@](C)(CCC[C@H](C)CCC[C@H](C)CCCC(C)C)O2` [α-TEA], the “inhibition of induction of apoptosis” value [1] was “approximately 60%”.
For `Cc1c(C)c2c(c(C)c1O)CC[C@@](C)(CCC[C@H](C)CCC[C@H](C)CCCC(C)C)O2` [RRR-α-tocopherol], the “antiproliferative and proapoptotic activity” value ([4]; cells of epithelial or immune origin) is listed as “neither antiproliferative nor proapoptotic biological activity”.
In the case of `CC(C)=CCC/C(C)=C/CC/C(C)=C/CC[C@]1(C)CCc2cc(O)cc(C)c2O1` [δT3, RRR-δ-tocotrienol], the “inhibition of induction of apoptosis” value [1] is reported as “approximately 60%”.
For `Cc1c(C)c2c(c(C)c1OCC(=O)O)CC[C@@](C)(CCC[C@H](C)CCC[C@H](C)CCCC(C)C)O2` [compound #1, 2,5,7,8-tetramethyl-(2R-(4R,8R,12-trimethyltridecycl)chroman-6-yloxy) acetic acid], the “ability to induce apoptosis in cells transfected with either TAP-38 or TAP-46, vs vector control” value [5] was “enhanced”, the “ability to induce apoptosis in cells transfected with antisense oligomers to TAP, vs sense oligomers” value (MDA-MB-435 cells [2]) was “blocked” and the “cleavage of poly ADP-ribose polymerase (PARP) in compound-treated cells with antisense vs sense oligomers to TAP” value (MDA-MB-435 cells [3]) was “blocked the cleavage”. The “phosphorylation of c-Jun in compound-treated cells with antisense vs sense oligomers to TAP” value (MDA-MB-435 cells [3]) was “inhibited the phosphorylation”.
